In PubChem BioAssay AID1963836 (Molecular Pharmacology Branch, DTP, NCI, 2024):

Tested on: 857933-349-R-J2-PDC complex spheroid viability
Test: Anticancer human tumor 857933-349-R-J2-PDC patient-derived colon adenocarcinoma cell line growth inhibition [POLQ]
Conditions: for IC50: curve of first compound; for viability, T/C: stronger effect = lower value
In short: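 Growth inhibition in 3D: complex spheroids (tumor PDC, HUVEC, MSC) treated with POLQ inhibitor combinations; where Cmax unknown, highest tested concentration 10 microM, except SN-38 at 1 microM.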

[1] = second compound 0.0316 µM, first compound 0.0316 µM
[2] = second compound 0.0316 µM, first compound 0.1 µM
[3] = second compound 0.0316 µM, first compound 0.316 µM
[4] = second compound 0.0316 µM, first compound 1 µM
[5] = second compound 0.0316 µM, first compound 3.16 µM
[6] = second compound 0.0316 µM, first compound 10 µM
[7] = second compound 0.1 µM, first compound 0.0316 µM
[8] = second compound 0.1 µM, first compound 0.1 µM
[9] = second compound 0.1 µM, first compound 0.316 µM
[10] = second compound 0.1 µM, first compound 1 µM
[11] = second compound 0.1 µM, first compound 3.16 µM
[12] = second compound 0.1 µM, first compound 10 µM
[13] = second compound 0.316 µM, first compound 0.0316 µM
[14] = second compound 0.316 µM, first compound 0.1 µM
[15] = second compound 0.316 µM, first compound 0.316 µM
[16] = second compound 0.316 µM, first compound 1 µM
[17] = second compound 0.316 µM, first compound 3.16 µM
[18] = second compound 0.316 µM, first compound 10 µM
[19] = second compound 1 µM, first compound 0.0316 µM
[20] = second compound 1 µM, first compound 0.1 µM
[21] = second compound 1 µM, first compound 0.316 µM
[22] = second compound 1 µM, first compound 1 µM
[23] = second compound 1 µM, first compound 3.16 µM
[24] = second compound 1 µM, first compound 10 µM
[25] = second compound 3.16 µM, first compound 0.0316 µM
[26] = second compound 3.16 µM, first compound 0.1 µM
[27] = second compound 3.16 µM, first compound 0.316 µM
[28] = second compound 3.16 µM, first compound 1 µM
[29] = second compound 3.16 µM, first compound 3.16 µM
[30] = second compound 3.16 µM, first compound 10 µM
[31] = second compound 10 µM, first compound 0.0316 µM
[32] = second compound 10 µM, first compound 0.1 µM
[33] = second compound 10 µM, first compound 0.316 µM
[34] = second compound 10 µM, first compound 1 µM
[35] = second compound 10 µM, first compound 3.16 µM
[36] = second compound 10 µM, first compound 10 µM
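Note: spheroids exposed to compounds for seven days before readout.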

SMILES: CC1COCCN1c1cc(-c2ccnn2C)c2ccnc(-c3ccn[nH]3)c2n1 (stereo not drawn) + Cc1cccc(N(C)C(=O)C2C(O)CCN2c2nc(C)cc(C(F)(F)F)c2C#N)c1
- IC50 (second compound 0.0316 µM): 186 nM
- IC50 (second compound 0.1 µM): 212 nM
- IC50 (second compound 0.316 µM): 235 nM
- IC50 (second compound 1 µM): 181 nM
- IC50 (second compound 3.16 µM): 153 nM
- IC50 (second compound 10 µM): 92.5 nM
- viability, T/C [1]: 58.7%
- viability, T/C [2]: 55.3%
- viability, T/C [3]: 44%
- viability, T/C [4]: 29.7%
- viability, T/C [5]: 32.7%
- viability, T/C [6]: 36.6%
- viability, T/C [7]: 71.6%
- viability, T/C [8]: 73.2%
- viability, T/C [9]: 38.1%
- viability, T/C [10]: 34.2%
- viability, T/C [11]: 42.9%
- viability, T/C [12]: 37.2%
- viability, T/C [13]: 73.2%
- viability, T/C [14]: 68.3%
- viability, T/C [15]: 43.9%
- viability, T/C [16]: 31.3%
- viability, T/C [17]: 49.6%
- viability, T/C [18]: 45.4%
- viability, T/C [19]: 58.9%
- viability, T/C [20]: 63.4%
- viability, T/C [21]: 37.6%
- viability, T/C [22]: 34.4%
- viability, T/C [23]: 42.6%
- viability, T/C [24]: 43.4%
- viability, T/C [25]: 65.9%
- viability, T/C [26]: 55.4%
- viability, T/C [27]: 44.6%
- viability, T/C [28]: 38.3%
- viability, T/C [29]: 43%
- viability, T/C [30]: 45.6%
- viability, T/C [31]: 49.8%
- viability, T/C [32]: 59.9%
- viability, T/C [33]: 40%
- viability, T/C [34]: 37.6%
- viability, T/C [35]: 47.5%
- viability, T/C [36]: 34.9%

SMILES: CC1COCCN1c1cc(C2(S(C)(=N)=O)CC2)nc(-c2ccnc3[nH]ccc23)n1 (stereo not drawn) + Cc1cccc(N(C)C(=O)C2C(O)CCN2c2nc(C)cc(C(F)(F)F)c2C#N)c1
- IC50 (second compound 0.0316 µM): 3210 nM
- IC50 (second compound 0.1 µM): 3880 nM
- IC50 (second compound 0.316 µM): 2710 nM
- IC50 (second compound 1 µM): 4380 nM
- IC50 (second compound 3.16 µM): 5540 nM
- IC50 (second compound 10 µM): 4770 nM
- viability, T/C [1]: 97.9%
- viability, T/C [2]: 105%
- viability, T/C [3]: 95%
- viability, T/C [4]: 78.2%
- viability, T/C [5]: 50.4%
- viability, T/C [6]: 36.4%
- viability, T/C [7]: 88.6%
- viability, T/C [8]: 112%
- viability, T/C [9]: 87.4%
- viability, T/C [10]: 76.3%
- viability, T/C [11]: 55.2%
- viability, T/C [12]: 32.5%
- viability, T/C [13]: 75%
- viability, T/C [14]: 81.5%
- viability, T/C [15]: 101%
- viability, T/C [16]: 69.8%
- viability, T/C [17]: 48.7%
- viability, T/C [18]: 35.4%
- viability, T/C [19]: 92.9%
- viability, T/C [20]: 91.7%
- viability, T/C [21]: 102%
- viability, T/C [22]: 74.8%
- viability, T/C [23]: 57.4%
- viability, T/C [24]: 36.6%
- viability, T/C [25]: 95.5%
- viability, T/C [26]: 98.2%
- viability, T/C [27]: 84.4%
- viability, T/C [28]: 78.8%
- viability, T/C [29]: 52.3%
- viability, T/C [30]: 45.8%
- viability, T/C [31]: 80.1%
- viability, T/C [32]: 84.7%
- viability, T/C [33]: 88.6%
- viability, T/C [34]: 72.5%
- viability, T/C [35]: 57.4%
- viability, T/C [36]: 38.2%

SMILES: COc1ccc([C@@H](O)c2cc(-c3ncnc4cc(N5CCOCC5)ccc34)c(F)cc2Cl)nn1 + Cc1cccc(N(C)C(=O)C2C(O)CCN2c2nc(C)cc(C(F)(F)F)c2C#N)c1
- IC50 (second compound 0.0316 µM): > 10000 nM
- IC50 (second compound 0.1 µM): > 10000 nM
- IC50 (second compound 0.316 µM): > 10000 nM
- IC50 (second compound 1 µM): > 10000 nM
- IC50 (second compound 3.16 µM): 8540 nM
- IC50 (second compound 10 µM): > 10000 nM
- viability, T/C [1]: 118%
- viability, T/C [2]: 90.8%
- viability, T/C [3]: 88.6%
- viability, T/C [4]: 73.4%
- viability, T/C [5]: 71.6%
- viability, T/C [6]: 64.2%
- viability, T/C [7]: 91.8%
- viability, T/C [8]: 114%
- viability, T/C [9]: 91.1%
- viability, T/C [10]: 79%
- viability, T/C [11]: 72.8%
- viability, T/C [12]: 57.7%
- viability, T/C [13]: 110%
- viability, T/C [14]: 116%
- viability, T/C [15]: 83.6%
- viability, T/C [16]: 88.8%
- viability, T/C [17]: 93.7%
- viability, T/C [18]: 62.8%
- viability, T/C [19]: 91.9%
- viability, T/C [20]: 97.3%
- viability, T/C [21]: 119%
- viability, T/C [22]: 63.8%
- viability, T/C [23]: 91.6%
- viability, T/C [24]: 56.8%
- viability, T/C [25]: 87.1%
- viability, T/C [26]: 87.4%
- viability, T/C [27]: 95.5%
- viability, T/C [28]: 71.5%
- viability, T/C [29]: 85.6%
- viability, T/C [30]: 44.4%
- viability, T/C [31]: 97.9%
- viability, T/C [32]: 97.5%
- viability, T/C [33]: 76.3%
- viability, T/C [34]: 61.6%
- viability, T/C [35]: 71.9%
- viability, T/C [36]: 49.2%

SMILES: Cn1ncnc1[C@H]1c2n[nH]c(=O)c3cc(F)cc(c23)N[C@@H]1c1ccc(F)cc1 + Cc1cccc(N(C)C(=O)C2C(O)CCN2c2nc(C)cc(C(F)(F)F)c2C#N)c1
- IC50 (second compound 0.0316 µM): > 100 nM
- IC50 (second compound 0.1 µM): > 100 nM
- IC50 (second compound 0.316 µM): > 100 nM
- IC50 (second compound 1 µM): > 100 nM
- IC50 (second compound 3.16 µM): > 100 nM
- IC50 (second compound 10 µM): > 100 nM
- viability, T/C (second compound 0.0316 µM, first compound 0.000316 µM): 101%
- viability, T/C (second compound 0.0316 µM, first compound 0.001 µM): 115%
- viability, T/C (second compound 0.0316 µM, first compound 0.00316 µM): 114%
- viability, T/C (second compound 0.0316 µM, first compound 0.01 µM): 125%
- viability, T/C [1]: 98.2%
- viability, T/C [2]: 97.3%
- viability, T/C (second compound 0.1 µM, first compound 0.000316 µM): 110%
- viability, T/C (second compound 0.1 µM, first compound 0.001 µM): 116%
- viability, T/C (second compound 0.1 µM, first compound 0.00316 µM): 120%
- viability, T/C (second compound 0.1 µM, first compound 0.01 µM): 80%
- viability, T/C [7]: 101%
- viability, T/C [8]: 103%
- viability, T/C (second compound 0.316 µM, first compound 0.000316 µM): 97.5%
- viability, T/C (second compound 0.316 µM, first compound 0.001 µM): 102%
- viability, T/C (second compound 0.316 µM, first compound 0.00316 µM): 95.8%
- viability, T/C (second compound 0.316 µM, first compound 0.01 µM): 86.2%
- viability, T/C [13]: 101%
- viability, T/C [14]: 99.8%
- viability, T/C (second compound 1 µM, first compound 0.000316 µM): 85.1%
- viability, T/C (second compound 1 µM, first compound 0.001 µM): 96.5%
- viability, T/C (second compound 1 µM, first compound 0.00316 µM): 80.9%
- viability, T/C (second compound 1 µM, first compound 0.01 µM): 82%
- viability, T/C [19]: 103%
- viability, T/C [20]: 95.2%
- viability, T/C (second compound 3.16 µM, first compound 0.000316 µM): 96.4%
- viability, T/C (second compound 3.16 µM, first compound 0.001 µM): 116%
- viability, T/C (second compound 3.16 µM, first compound 0.00316 µM): 92.7%
- viability, T/C (second compound 3.16 µM, first compound 0.01 µM): 108%
- viability, T/C [25]: 96.2%
- viability, T/C [26]: 97.1%
- viability, T/C (second compound 10 µM, first compound 0.000316 µM): 91%
- viability, T/C (second compound 10 µM, first compound 0.001 µM): 115%
- viability, T/C (second compound 10 µM, first compound 0.00316 µM): 108%
- viability, T/C (second compound 10 µM, first compound 0.01 µM): 112%
- viability, T/C [31]: 110%
- viability, T/C [32]: 104%
